Active and inactive are the calls of the source. The rule behind the calls is not given here.
Key:
MCF7 [1] = assay: Antiproliferative activity human ER-positive MCF7 cells after 2 days by MTT assay; type: functional, cell-based; details: MCF7, 48 h
MDA-MB-231 [2] = assay: Antiproliferative activity human ER-negative MDA-MB-231 cells after 2 days by MTT assay; type: functional, cell-based; details: MDA-MB-231, 48 h
[3] = Antiproliferative activity mouse B16F10 cells after 2 days by MTT assay; type: functional, cell-based; details: B16-F10, 48 h
[4] = Antiproliferative activity human MIAPaCa2 cells after 2 days by MTT assay; type: functional, cell-based; details: MIA PaCa-2, 48 h
CHO [5] = assay: Antiproliferative activity against CHO cells after 2 days by MTT assay; type: cell-based; details: Cricetulus griseus, 48 h
[6] = Antiproliferative activity mouse NIH/3T3 cells after 2 days by MTT assay; type: cell-based; details: NIH3T3, 48 h
B16-F10 [7] = assay: Antitumor activity against mouse B16F10 cells inoculated in C57BL6J mouse assessed as tumor regression at 9.15 mg/kg, ip for 9 days; type: functional, organism-based; parameters: dose 9.15 mg/kg
B16-F10 [8] = assay: Induction of apoptosis in mouse B16F10 cells assessed as necrotic cells at 5 uM after 24 hrs by FITC-annexin V/PI staining based flow cytometry (RVB = 5.12%); type: functional
B16-F10 [9] = assay: Induction of apoptosis in mouse B16F10 cells assessed as late apoptotic cells at 5 uM after 24 hrs by FITC-annexin V/PI staining based flow cytometry (RVB = 4.94%); type: functional
B16-F10 [10] = assay: Induction of apoptosis in mouse B16F10 cells assessed as early apoptotic cells at 5 uM after 24 hrs by FITC-annexin V/PI staining based flow cytometry (RVB = 0.36%); type: functional
B16-F10 [11] = assay: Induction of apoptosis in mouse B16F10 cells assessed as viable cells at 5 uM after 24 hrs by FITC-annexin V/PI staining based flow cytometry (RVB = 89.58%); type: functional; details: B16-F10, 24 h, read-out: Activity
MDA-MB-231 [12] = assay: Induction of apoptosis in human ER-negative MDA-MB-231 cells assessed as necrotic cells at 5 uM after 24 hrs by FITC-annexin V/PI staining based flow cytometry (RVB = 2.21%); type: functional
MDA-MB-231 [13] = assay: Induction of apoptosis in human ER-negative MDA-MB-231 cells assessed as late apoptotic cells at 5 uM after 24 hrs by FITC-annexin V/PI staining based flow cytometry (RVB = 0.99%); type: functional
MDA-MB-231 [14] = assay: Induction of apoptosis in human ER-negative MDA-MB-231 cells assessed as early apoptotic cells at 5 uM after 24 hrs by FITC-annexin V/PI staining based flow cytometry (RVB = 1.15%); type: functional
MDA-MB-231 [15] = assay: Induction of apoptosis in human ER-negative MDA-MB-231 cells assessed as viable cells at 5 uM after 24 hrs by FITC-annexin V/PI staining based flow cytometry (RVB =95.66%); type: functional; details: MDA-MB-231, 24 h, read-out: Activity
MCF7 [16] = assay: Induction of apoptosis in human ER-positive MCF7 cells assessed as necrotic cells at 5 uM after 24 hrs by FITC-annexin V/PI staining based flow cytometry (RVB = 3.24%); type: functional
MCF7 [17] = assay: Induction of apoptosis in human ER-positive MCF7 cells assessed as late apoptotic cells at 5 uM after 24 hrs by FITC-annexin V/PI staining based flow cytometry (RVB = 3.68%); type: functional
MCF7 [18] = assay: Induction of apoptosis in human ER-positive MCF7 cells assessed as early apoptotic cells at 5 uM after 24 hrs by FITC-annexin V/PI staining based flow cytometry (RVB = 0.86%); type: functional
MCF7 [19] = assay: Induction of apoptosis in human ER-positive MCF7 cells assessed as viable cells at 5 uM after 24 hrs by FITC-annexin V/PI staining based flow cytometry (RVB = 92.22%); type: functional; details: MCF7, 24 h, read-out: Activity
RAW264.7 [20] = assay: Induction of apoptosis in mouse RAW264.7 cells assessed as necrotic cells at 5 uM after 24 hrs by FITC-annexin V/PI staining based flow cytometry (RVB = 0.29%); type: cell-based; details: raw264.7, 24 h
RAW264.7 [21] = assay: Induction of apoptosis in mouse RAW264.7 cells assessed as late apoptotic cells at 5 uM after 24 hrs by FITC-annexin V/PI staining based flow cytometry (RVB = 0.51%); type: cell-based; details: raw264.7, 24 h
RAW264.7 [22] = assay: Induction of apoptosis in mouse RAW264.7 cells assessed as early apoptotic cells at 5 uM after 24 hrs by FITC-annexin V/PI staining based flow cytometry (RVB = 0.69%); type: cell-based; details: raw264.7, 24 h
[23] = Induction of apoptosis in mouse RAW264.7 cells assessed as viable cells at 5 uM after 24 hrs by FITC-annexin V/PI staining based flow cytometry (RVB = 98.51%); type: cell-based; details: read-out: Activity
CHO [24] = assay: Induction of apoptosis in CHO cells assessed as necrotic cells at 5 uM after 24 hrs by FITC-annexin V/PI staining based flow cytometry (RVB = 0.79%); type: cell-based, Cricetulus griseus; details: chinese hamster
CHO [25] = assay: Induction of apoptosis in CHO cells assessed as late apoptotic cells at 5 uM after 24 hrs by FITC-annexin V/PI staining based flow cytometry (RVB = 0.00%); type: cell-based, Cricetulus griseus; details: chinese hamster
CHO [26] = assay: Induction of apoptosis in CHO cells assessed as early apoptotic cells at 5 uM after 24 hrs by FITC-annexin V/PI staining based flow cytometry (RVB = 0.00%); type: cell-based, Cricetulus griseus; details: chinese hamster
[27] = Induction of apoptosis in CHO cells assessed as viable cells at 5 uM after 24 hrs by FITC-annexin V/PI staining based flow cytometry (RVB = 99.21%); type: cell-based, Cricetulus griseus; details: chinese hamster, read-out: Activity
MCF7 [28] = assay: Cell cycle arrest in human ER-positive MCF7 cells assessed as accumulation at sub-G0 phase at 5 to 10 uM after 24 hrs by PI staining based flow cytometry; type: functional
[29] = Cell cycle arrest in mouse B16F10 cells assessed as accumulation at sub-G0 phase at 5 to 10 uM after 24 hrs by PI staining based flow cytometry; type: functional; details: B16-F10
MCF7 [30] = assay: Cell cycle arrest in human ER-positive MCF7 cells assessed as reduction in accumulation at G0-G1 phase 5 to 10 uM after 24 hrs by PI staining based flow cytometry; type: functional
[31] = Cell cycle arrest in mouse B16F10 cells assessed as reduction in accumulation at G0-G1 phase 5 to 10 uM after 24 hrs by PI staining based flow cytometry; type: functional; details: B16-F10
B16-F10 [32] = assay: Antitumor activity against mouse B16F10 cells inoculated in C57BL6J mouse assessed as tumor regression at 10 mg/kg, ip for 9 days; type: functional, organism-based; parameters: dose 10 mg/kg
B16-F10 [33] = assay: Antitumor activity against mouse B16F10 cells expressing ER inoculated in C57BL6J mouse assessed as tumor regression at 10 mg/kg, ip for 9 days; type: functional, organism-based; parameters: dose 10 mg/kg
B16-F10 [34] = assay: Antitumor activity against mouse B16F10 cells expressing ER inoculated in C57BL6J mouse assessed as tumor regression at 10 mg/kg, ip for 9 days in presence of estradiol; type: functional, organism-based; parameters: dose 10 mg/kg

CCCCCCCCCCCCCC[N+](C)(CCCCCCCCCCCCCC)CCC[C@]1(O)CC[C@H]2[C@@H]3CCc4cc(O)ccc4[C@H]3CC[C@@]21C
IC50 (MCF7 [1]): 17.4 µM | IC50 (MDA-MB-231 [2]): 38.7 µM | IC50 [3]: 32.3 µM | IC50 [4]: 42.5 µM | IC50 (CHO [5]): > 100 µM | IC50 [6]: 80.3 µM

CCCCCCCCCCCC[N+](C)(CCCCCCCCCCCC)CCC[C@]1(O)CC[C@H]2[C@@H]3CCc4cc(O)ccc4[C@H]3CC[C@@]21C
IC50 (MCF7 [1]): 6.23 µM | IC50 (MDA-MB-231 [2]): 6.02 µM | IC50 [3]: 5.79 µM | IC50 [4]: 7.36 µM | IC50 (CHO [5]): 90.8 µM | IC50 [6]: 85.4 µM

CCCCCCCC[N+](C)(CCCCCCCC)CCC[C@]1(O)CC[C@H]2[C@@H]3CCc4cc(O)ccc4[C@H]3CC[C@@]21C
IC50 (MCF7 [1]): 5.34 µM | IC50 (MDA-MB-231 [2]): 5.62 µM | IC50 [3]: 6.48 µM | IC50 [4]: 6.83 µM | IC50 (CHO [5]): 45.3 µM | IC50 [6]: 51 µM | inhibition (B16-F10 [7]): Active

C[C@]12CC[C@@H]3c4ccc(O)cc4CC[C@H]3[C@@H]1CC[C@@H]2O [ESTRADIOL]
IC50 (MCF7 [1]): 27.4 µM | IC50 (MDA-MB-231 [2]): 33.5 µM | IC50 [3]: 39.8 µM | IC50 [4]: 42.9 µM | IC50 (CHO [5]): > 100 µM | IC50 [6]: > 100 µM

CCCCCCCCCC[N+](C)(CCCCCCCCCC)CCC[C@]1(O)CC[C@H]2[C@@H]3CCc4cc(O)ccc4[C@H]3CC[C@@]21C.[Cl-]
IC50 (MCF7 [1]): 1.36 µM | IC50 (MDA-MB-231 [2]): 1.14 µM | IC50 [3]: 0.5 µM | IC50 [4]: 0.46 µM | IC50 (CHO [5]): 81.7 µM | IC50 [6]: 47.7 µM | Activity (B16-F10 [8]): 2.87% | Activity (B16-F10 [9]): 67.86% | Activity (B16-F10 [10]): 2.53% | viability at 5 µM (B16-F10 [11]): 26.7% | Activity (MDA-MB-231 [12]): 3.39% | Activity (MDA-MB-231 [13]): 50.63% | Activity (MDA-MB-231 [14]): 21.65% | viability at 5 µM (MDA-MB-231 [15]): 24.3% | Activity (MCF7 [16]): 1.4% | Activity (MCF7 [17]): 45.94% | Activity (MCF7 [18]): 1.62% | viability at 5 µM (MCF7 [19]): 51% | Activity (RAW264.7 [20]): 0.1% | Activity (RAW264.7 [21]): 0.27% | Activity (RAW264.7 [22]): 0.55% | viability at 24 h, 5 µM [23]: 99.1% | Activity (CHO [24]): 0.86% | Activity (CHO [25]): 0.23% | Activity (CHO [26]): 0.56% | viability at 24 h, 5 µM [27]: 98.3% | Activity (MCF7 [28]): Active | Activity [29]: Active | Activity (MCF7 [30]): Active | Activity [31]: Active | inhibition (B16-F10 [32]): Active | inhibition (B16-F10 [33]): Active | inhibition (B16-F10 [34]): inactive

CCCCCC[N+](C)(CCCCCC)CCC[C@]1(O)CC[C@H]2[C@@H]3CCc4cc(O)ccc4[C@H]3CC[C@@]21C
IC50 (MCF7 [1]): 7.85 µM | IC50 (MDA-MB-231 [2]): 6.78 µM | IC50 [3]: 6.56 µM | IC50 [4]: 8.51 µM | IC50 (CHO [5]): 60.4 µM | IC50 [6]: 45.8 µM

CC/C(=C(\c1ccccc1)c1ccc(OCCN(C)C)cc1)c1ccccc1 [TAMOXIFEN]
IC50 (MCF7 [1]): 4.67 µM | IC50 (MDA-MB-231 [2]): 39 µM | IC50 [3]: 64.9 µM | IC50 [4]: 33.1 µM | IC50 (CHO [5]): > 100 µM | IC50 [6]: > 100 µM

Reference: ChEMBL document CHEMBL3351426, “Development of new estradiol-cationic lipid hybrids: ten-carbon twin chain cationic lipid is a more suitable partner for estradiol to elicit better anticancer activity” (Eur J Med Chem, 2014)
